In publication PMC10812557, “Progressive Design of a Ranatuerin-2 Peptide from Amolops wuyiensis: Enhancement of Bioactivity and In Vivo Efficacy” (Antibiotics, 2023):
Read-outs that look alike come from different tables or passages of the source. Bridge positions count the residues as written; N and C are the ends. Peptide text beside a SMILES is read from it.

Assays:
[1] = tested on: P. aeruginosa (ATCC 9027); assay type: cell-based
Text: (§1) The MIC and MBC assays were used to assess the inhibitory activities of all 5 analogues of R2AW on the growth of planktonic microorganisms. The MIC is the lowest concentration that prevents the viable growth of bacteria. The MBC is the lowest concentration that results in bacterial death. Six microorganisms were used to detect the antimicrobial activity of peptides, including Gram-positive bacteria S. aureus (NCTC 10788), MRSA (NCTC 12493), Enterococcus faecalis (E. faecalis) (NCTC 12697), Gram-negative bacteria E. coli […], Klebsiella pneumoniae (K. pneumoniae) (ATCC 43816), and Pseudomonas aeruginosa (P. aeruginosa) (ATCC 9027). According to the assay described previously, the microorganisms were inoculated at 37 °C overnight and diluted to 5 × 10^5 CFU/mL after reaching the logarithmic growth period. The peptide stock solution at the concentration of 512 × 10^2 μM was prepared and diluted to 100 μM by a 2-fold dilution. One μL of each concentration of peptide solution was incubated with 99 μL of bacterial subculture in the 96-well plate for 18 h at 37 °C. The absorbance was determined at a wavelength of 550 nm using a Synergy HT plate reader (Bio Tek, Washington, DC, USA). […] As for those wells that were clearly visible, 20 μL of the solution was dropped onto the Mueller Hinton agar (MHA) dish and then incubated at 37 °C overnight. The lowest concentration with no colony growth was determined as the MBC.

E. coli (ATCC 8739) [2] = assay type: cell-based
Text: as §1

[3] = tested on: K. pneumoniae (ATCC 43816); assay type: cell-based
Text: as §1

E. faecium (NTCC 12697) [4] = experiment: microbe, parasite or virus in culture; assay type: cell-based
Text: as §1

MRSA (NCTC 12493) [5] = experiment: microbe, parasite or virus in culture; assay type: cell-based; settings: MRSA (NCTC 12493)
Text: as §1

S. aureus (NCTC 10788) [6] = experiment: microbe, parasite or virus in culture; assay type: cell-based
Text: as §1

S. aureus (NCTC 10788) [7] = assay type: cell-based, Staphylococcus aureus
Protocol: (§2) As a previous study described in detail, the ability of R2AW and its analogues to inhibit and eradicate the formation of biofilm was investigated. The MBIC is the lowest concentration which inhibits the formation of biofilm. The MBEC is the minimum concentration that eradicates biofilm. Six bacterial strains were used, as described above. Briefly, the bacteria were cultured and then diluted to 5 × 10^5 CFU/mL. In MBIC assays, 1 μL of each concentration of R2AW and its analogues (ranging from 512 × 10^2 μM to 100 μM) was mixed with 99 μL of diluted bacterial suspension in a 96-well plate for 16-20 h at 37 °C. As for MBEC assays, 100 μL of cultured bacteria were seeded in a 96-well plate and incubated on the shaking incubator at 37 °C overnight for biofilm formation. Subsequently, each well was rinsed twice with 100 μL sterile PBS to remove planktonic cells, and then replaced with 100 μL of each concentration (ranging from 512 μM to 1 μM) of peptides. After 24 h incubation, the biofilm was washed twice with 100 μL of PBS and fixed with methanol. Next, the same volume of 0.1% crystal violet solution (Sigma-Aldrich, Gillingham, UK) was added to each well to stain the biofilm. After that, 100 μL of 30% of acetic acid (Sigma-Aldrich, Gillingham, UK) was transferred to each well for dissolution. The solutions were transferred into a new 96-well plate and the absorbances of wells was monitored using a Synergy HT plate reader set to 595 nm.

[8] = tested on: K. pneumoniae (ATCC 43816); assay type: cell-based, Klebsiella pneumoniae
Protocol: as §2

[9] = tested on: P. aeruginosa (ATCC 9027); assay type: cell-based, Pseudomonas aeruginosa
Protocol: as §2

E. coli (ATCC 8739) [10] = assay type: cell-based, Escherichia coli
Protocol: as §2

H838 = assay type: cell-based, human; settings: 24 h
Protocol: (§3) Five human cancer cell lines of non-small-cell lung cancer H838, human prostate carcinoma PC-3, human neuronal glioblastoma U251MG, human breast cancer cell MCF-7, and colorectal carcinoma HCT116 were used to detect the antiproliferative abilities of R2AW and its five analogues. According to the procedures in a previous article, cells (8000 cells/well) were seeded into the 96-well tissue culture plates and incubated at 37 °C with 5% CO2 overnight. The solutions of R2AW and its analogues at concentrations of 10^−4 M to 10^−9 M were prepared in the serum-free medium. Next, cells in each well were treated with 100 μL of each peptide solution for 24 h. Subsequently, 10 μL of 5 mg/mL MTT (3-(4, 5-Dimethylthiazol-2-yl-)-2, 5-Diphehyltetrazolium Bromide) was added to each well followed by 37 °C incubation for 2 h. After that, the liquid in each well was removed and 100 μL of DMSO was added to dissolve the purple formazan. The plate was placed on a shaking incubator for 10 min, and the absorbance was detected at 550 nm using a Synergy HT plate reader (Biotech, Minneapolis, MN, USA).

HCT116 = assay type: cell-based, human; settings: 24 h
Protocol: as §3

U251MG = assay type: cell-based, human; settings: 24 h
Protocol: as §3

MCF-7 = assay type: cell-based, human; settings: 24 h
Protocol: as §3

PC-3 = assay type: cell-based, human; settings: 24 h
Protocol: as §3

E. faecium (NTCC 12697) [11] = assay type: cell-based
Protocol: as §2

MRSA (NCTC 12493) [12] = assay type: cell-based, methicillin-resistant Staphylococcus aureus; settings: NCTC 12493
Protocol: as §2

[13] = tested on: five human cancer cell lines; assay type: cell-based; settings: 24 h
Protocol: as §3

| SMILES | MBC (MRSA (NCTC 12493) [5]) | MBC ([1]; ATCC 9027, 18 h) [µg/mL] | MIC ([1]; ATCC 9027, 18 h) [µg/mL] | MBC (E. coli (ATCC 8739) [2]; ATCC 8739, 18 h) [µg/mL] | MIC (E. coli (ATCC 8739) [2]; ATCC 8739, 18 h) | MBC ([3]; ATCC 43816, 18 h) [µg/mL] | MIC ([3]; ATCC 43816, 18 h) [µg/mL] | MBC (E. faecium (NTCC 12697) [4]; NTCC 12697, 18 h) [µg/mL] | MIC (E. faecium (NTCC 12697) [4]; NTCC 12697, 18 h) [µg/mL] | MIC (MRSA (NCTC 12493) [5]) [µg/mL] | MBC (S. aureus (NCTC 10788) [6]; NCTC 10788, 18 h) [µg/mL] | MIC (S. aureus (NCTC 10788) [6]; NCTC 10788, 18 h) | MBEC (S. aureus (NCTC 10788) [7]) [µM] | MBIC (S. aureus (NCTC 10788) [7]) [µM] | MBEC [8] | MBIC [8] | MBEC [9] [µM] | MBIC [9] [µM] | MBEC (E. coli (ATCC 8739) [10]) [µM] | MBIC (E. coli (ATCC 8739) [10]) [µM] | further results |
| --- | --- | --- | --- | --- | --- | --- | --- | --- | --- | --- | --- | --- | --- | --- | --- | --- | --- | --- | --- | --- | --- |
| CC[C@H](C)[C@H](NC(=O)CN)C(=O)NCC(=O)N[C@@H](C)C(=O)N[C@H](C(=O)N[C@@H](CC(C)C)C(=O)N[C@@H](CCCCN)C(=O)N[C@H](C(=O)N[C@@H](CC(C)C)C(=O)N[C@H](C(=O)N[C@H](C(=O)NCC(=O)N[C@@H](CC(C)C)C(=O)N1CCC[C@H]1C(=O)N[C@@H](C)C(=O)N[C@@H](CC(C)C)C(=O)N[C@H](C(=O)N[C@@H](CO)C(=O)N[C@@H](Cc1c[nH]c2ccccc12)C(=O)N[C@H](C(=O)N[C@@H](CCCCN)C(=O)N[C@@H](CCCNC(=N)N)C(=O)N[C@@H](CCCCN)C(=O)N[C@@H](CCCNC(=N)N)C(=O)N[C@@H](CCC(N)=O)C(=O)N[C@@H](CCC(N)=O)C(N)=O)[C@@H](C)CC)[C@@H](C)CC)[C@@H](C)O)[C@@H](C)O)C(C)C)C(C)C [Melittin, reference compound] | 2 µM | – | – | – | – | – | – | – | – | – | – | – | – | – | – | – | – | – | – | – | MBC ([1]; P. aeruginosa (ATCC 9027)): 32 µM; MBC (E. coli (ATCC 8739) [2]; E. coli (ATCC 8739)): 4 µM; MBC ([3]; K. pneumoniae (ATCC 43816)): 32 µM; MIC ([3]; K. pneumoniae (ATCC 43816)): 32 µM; MBC (E. faecium (NTCC 12697) [4]; E. faecium (NTCC 12697)): 2 µM; MIC (E. faecium (NTCC 12697) [4]; E. faecium (NTCC 12697)): 2 µM; MBC (S. aureus (NCTC 10788) [6]; S. aureus (NCTC 10788)): 2 µM |
| CSCC[C@H](NC(=O)[C@H](Cc1ccccc1)NC(=O)CN)C(=O)N[C@@H](CC(=O)O)C(=O)N[C@H](C(=O)N[C@@H](C)C(=O)N[C@@H](CCCCN)C(=O)N[C@@H](CC(N)=O)C(=O)N[C@H](C(=O)N[C@@H](C)C(=O)N[C@@H](CCCCN)C(=O)N[C@@H](CC(N)=O)C(=O)N[C@H](C(=O)N[C@@H](C)C(=O)N[C@@H](C)C(=O)N[C@H](C(=O)N[C@@H](CC(C)C)C(=O)N[C@@H](CC(C)C)C(=O)N[C@@H](CC(=O)O)C(=O)N[C@@H](CCCCN)C(=O)N[C@@H](CC(C)C)C(=O)N[C@@H](CCCCN)C(N)=O)[C@@H](C)O)C(C)C)C(C)C)[C@@H](C)O [R2AW(1-22)-NH2] (H-GFMDTAKNVAKNVAATLLDKLK-NH2) | 601 µg/mL | > 1202 | 1202 | 301 | 300 µg/mL | 601 | 601 | 601 | 601 | 601 | 150 | 150 µg/mL | > 512 | 128 | 512/>512 µM | 512/>512 µM | >512 | >512 | 512 | 256 | IC50 (H838): 58.9 µM; IC50 (HCT116): 609 µM; IC50 (U251MG): 516 µM; IC50 (MCF-7): 374 µM; IC50 (PC-3): 194 µM; MBEC (E. faecium (NTCC 12697) [11]): >512 µM; MBIC (E. faecium (NTCC 12697) [11]): >512 µM |
| CSCC[C@H](NC(=O)[C@H](Cc1ccccc1)NC(=O)CN)C(=O)N[C@@H](CC(=O)O)C(=O)N[C@H](C(=O)N[C@@H](C)C(=O)N[C@@H](CCCCN)C(=O)N[C@@H](CC(N)=O)C(=O)N[C@H](C(=O)N[C@@H](C)C(=O)N[C@@H](CCCCN)C(=O)N[C@@H](CC(N)=O)C(=O)N[C@H](C(=O)N[C@@H](C)C(=O)N[C@@H](C)C(=O)N[C@H](C(=O)N[C@@H](CC(C)C)C(=O)N[C@@H](CC(C)C)C(=O)N[C@@H](CC(=O)O)C(=O)N[C@@H](CCCCN)C(=O)N[C@@H](CC(C)C)C(=O)N[C@@H](CCCCN)C(=O)O)[C@@H](C)O)C(C)C)C(C)C)[C@@H](C)O [R2AW(1-22)] (H-GFMDTAKNVAKNVAATLLDKLK-OH) | > 1202 µg/mL | > 1202 | > 1203 | > 1202 | > 1203 µg/mL | > 1202 | > 1203 | > 1202 | > 1203 | > 1203 | > 1202 | > 1203 µg/mL | >512 | >512 | >512 µM | >512 µM | >512 | >512 | >512 | >512 | MBEC (MRSA (NCTC 12493) [12]): >512 µM; MBIC (MRSA (NCTC 12493) [12]): >512 µM; IC50 (H838): 1420 µM; IC50 (HCT116): 1120 µM; IC50 (U251MG): 1820 µM; IC50 (MCF-7): 894 µM; IC50 (PC-3): 1480 µM; MBEC (E. faecium (NTCC 12697) [11]): >512 µM; MBIC (E. faecium (NTCC 12697) [11]): >512 µM |
| CC[C@H](C)[C@@H]1NC(=O)[C@H](CCCCN)NC(=O)[C@@H](NC(=O)[C@H](CCCCN)NC(=O)[C@H](CC(C)C)NC(=O)[C@H](CCCCN)NC(=O)[C@H](CC(=O)O)NC(=O)[C@H](CC(C)C)NC(=O)[C@H](CC(C)C)NC(=O)[C@@H](NC(=O)[C@H](C)NC(=O)[C@H](C)NC(=O)[C@@H](NC(=O)[C@H](CC(N)=O)NC(=O)[C@H](CCCCN)NC(=O)[C@H](C)NC(=O)[C@@H](NC(=O)[C@H](CC(N)=O)NC(=O)[C@H](CCCCN)NC(=O)[C@H](C)NC(=O)[C@@H](NC(=O)[C@H](CC(=O)O)NC(=O)[C@H](CCSC)NC(=O)[C@H](Cc2ccccc2)NC(=O)CN)[C@@H](C)O)C(C)C)C(C)C)[C@@H](C)O)CSSC[C@@H](C(=O)O)NC(=O)CNC(=O)CNC(=O)[C@H]([C@@H](C)O)NC1=O [R2AW] (H-GFMDTAKNVAKNVAATLLDKLKCKITGGC-OH; disulfide 23-29) | 1541 µg/mL | 1541 | 385 | 193 | 32 µM | 771 | 385 | 771 | 770 | 770 | 193 | 32 µM | > 512 | 128 | 512/>512 µM | 512/>512 µM | >512 | >512 | 512 | 128 | MBEC (MRSA (NCTC 12493) [12]): > 512 µM; MBIC (MRSA (NCTC 12493) [12]): 256 µM; IC50 [13]: 5.09 to 33.2 µM; IC50 (H838): 10.8 µM; IC50 (HCT116): 10.8 µM; IC50 (U251MG): 30.8 µM; IC50 (MCF-7): 33.2 µM; IC50 (PC-3): 5.09 µM; MBEC (E. faecium (NTCC 12697) [11]): >512 µM; MBIC (E. faecium (NTCC 12697) [11]): >512 µM |
